Experiments:
[1] = system: Ca9-22; test: cells; type: functional, cell-based; settings: Homo sapiens;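 also: growth inhibition of Ca9-22 cells, read out with a cell viability assay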
Description: SANGER: Inhibition of human Ca9-22 cell growth in a cell viability assay.

[2] = system: DG-75; test: cells; type: functional, cell-based; settings: Homo sapiens;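 also: growth inhibition of DG-75 cells, read out with a cell viability assay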
Description: SANGER: Inhibition of human DG-75 cell growth in a cell viability assay.

[3] = system: DK-MG; test: cells; type: functional, cell-based; settings: Homo sapiens;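 also: growth inhibition of DK-MG cells, read out with a cell viability assay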
Description: SANGER: Inhibition of human DK-MG cell growth in a cell viability assay.

[4] = system: DMS-273; test: cells; type: functional, cell-based; settings: Homo sapiens
Description: SANGER: Inhibition of human DMS-273 cell growth in a cell viability assay.

[5] = system: DOK; test: cells; type: functional, cell-based; settings: Homo sapiens;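 also: cell viability assay read-out, values reflect inhibition of cell growth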
Description: SANGER: Inhibition of human DOK cell growth in a cell viability assay.

[6] = system: ESS-1; test: cells; type: functional, cell-based; settings: Homo sapiens;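 also: growth inhibition of human ESS-1 cells, read out by a cell viability assay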
Description: SANGER: Inhibition of human ESS-1 cell growth in a cell viability assay.

[7] = system: GCT; test: cells; type: functional, cell-based; settings: Homo sapiens;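 also: GCT cell line proliferation inhibition, read out with a cell viability assay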
Description: SANGER: Inhibition of human GCT cell growth in a cell viability assay.

[8] = system: HCC1806; test: cells; type: functional, cell-based; settings: Homo sapiens;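 also: growth inhibition of the cancer cell line, determined with a cell viability assay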
Description: SANGER: Inhibition of human HCC1806 cell growth in a cell viability assay.

[9] = system: HEC-1; test: cells; type: functional, cell-based; settings: Homo sapiens;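 also: growth inhibition of the cell line, read out with a cell viability assay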
Description: SANGER: Inhibition of human HEC-1 cell growth in a cell viability assay.

[10] = system: HGC-27; test: cells; type: functional, cell-based; settings: Homo sapiens;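 also: growth inhibition of human HGC-27 cells, read out in a cell viability assay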
Description: SANGER: Inhibition of human HGC-27 cell growth in a cell viability assay.

[11] = system: HO-1-N-1; test: cells; type: functional, cell-based; settings: Homo sapiens;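 also: growth inhibition of human HO-1-N-1 cells, read out with a cell viability assay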
Description: SANGER: Inhibition of human HO-1-N-1 cell growth in a cell viability assay.

[12] = system: HPAF-II; test: cells; type: functional, cell-based; settings: Homo sapiens;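 also: growth inhibition of HPAF-II cells, read out with a cell viability assay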
Description: SANGER: Inhibition of human HPAF-II cell growth in a cell viability assay.

[13] = system: HT-29; test: cells; type: functional, cell-based; settings: Homo sapiens;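 also: growth inhibition of human HT-29 cells, read out by a cell viability assay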
Description: SANGER: Inhibition of human HT-29 cell growth in a cell viability assay.

[14] = system: HuO-3N1; test: cells; type: functional, cell-based; settings: Homo sapiens;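 also: cell viability readout used to measure how strongly compounds suppress proliferation of human HuO-3N1 cells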
Description: SANGER: Inhibition of human HuO-3N1 cell growth in a cell viability assay.

[15] = system: HuP-T3; test: cells; type: functional, cell-based; settings: Homo sapiens;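 also: HuP-T3 cell growth inhibition, read out with a cell viability assay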
Description: SANGER: Inhibition of human HuP-T3 cell growth in a cell viability assay.

[16] = system: KP-N-YN; test: cells; type: functional, cell-based; settings: Homo sapiens;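 also: growth inhibition of KP-N-YN cells, read out with a cell viability assay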
Description: SANGER: Inhibition of human KP-N-YN cell growth in a cell viability assay.

[17] = system: LCLC-103H cell line; test: cells; type: functional, cell-based; settings: Homo sapiens
Description: SANGER: Inhibition of human LCLC-103H cell growth in a cell viability assay.

[18] = system: LCLC-97TM1; test: cells; type: functional, cell-based; settings: Homo sapiens;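 also: cell viability assay measuring growth inhibition of human LCLC-97TM1 cells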
Description: SANGER: Inhibition of human LCLC-97TM1 cell growth in a cell viability assay.

[19] = system: LN-405; test: cells; type: functional, cell-based; settings: Homo sapiens
Description: SANGER: Inhibition of human LN-405 cell growth in a cell viability assay.

[20] = system: LOUCY; test: cells; type: functional, cell-based; settings: Homo sapiens;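 also: growth inhibition of human LOUCY cells, read out with a cell viability assay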
Description: SANGER: Inhibition of human LOUCY cell growth in a cell viability assay.

[21] = system: LP-1; test: cells; type: functional, cell-based; settings: Homo sapiens;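 also: growth inhibition of human LP-1 cells, with the read-out taken from a cell viability assay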
Description: SANGER: Inhibition of human LP-1 cell growth in a cell viability assay.

[22] = system: MC-IXC; test: cells; type: functional, cell-based; settings: Homo sapiens;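 also: growth inhibition of MC-IXC cells, read out with a cell viability assay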
Description: SANGER: Inhibition of human MC-IXC cell growth in a cell viability assay.

[23] = system: MCF7; test: cells; type: functional, cell-based; settings: Homo sapiens;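 also: growth inhibition of human MCF7 cells, read out with a cell viability assay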
Description: SANGER: Inhibition of human MCF7 cell growth in a cell viability assay.

[24] = system: MDA-MB-157; test: cells; type: functional, cell-based; settings: Homo sapiens
Description: SANGER: Inhibition of human MDA-MB-157 cell growth in a cell viability assay.

[25] = system: MDA-MB-361; test: cells; type: functional, cell-based; settings: Homo sapiens
[26] = system: MEL-HO; test: cells; type: functional, cell-based; settings: Homo sapiens
Description: SANGER: Inhibition of human MEL-HO cell growth in a cell viability assay.

[27] = system: MeWo; test: cells; type: functional, cell-based; settings: Homo sapiens;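 also: growth inhibition of MeWo cells, determined by a cell viability readout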
Description: SANGER: Inhibition of human Mewo cell growth in a cell viability assay.

[28] = system: NCI-H1563; test: cells; type: functional, cell-based; settings: Homo sapiens;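 also: growth inhibition of human NCI-H1563 cells, read out with a cell viability assay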
Description: SANGER: Inhibition of human NCI-H1563 cell growth in a cell viability assay.

[29] = system: NCI-H2052; test: cells; type: functional, cell-based; settings: Homo sapiens;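 also: growth inhibition of NCI-H2052 cells, read out with a cell viability assay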
Description: SANGER: Inhibition of human NCI-H2052 cell growth in a cell viability assay.

[30] = system: NCI-H2228; test: cells; type: functional, cell-based; settings: Homo sapiens;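 also: growth inhibition of human NCI-H2228 cells, read out by a cell viability assay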
Description: SANGER: Inhibition of human NCI-H2228 cell growth in a cell viability assay.

[31] = system: NCI-H292; test: cells; type: functional, cell-based; settings: Homo sapiens;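 also: growth inhibition of NCI-H292 cells, read out with a cell viability assay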
Description: SANGER: Inhibition of human NCI-H292 cell growth in a cell viability assay.

[32] = system: NCI-H460; test: cells; type: functional, cell-based; settings: Homo sapiens;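 also: cell viability assay scoring growth inhibition of human NCI-H460 cells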
Description: SANGER: Inhibition of human NCI-H460 cell growth in a cell viability assay.

[33] = system: NCI-H810; test: cells; type: functional, cell-based; settings: Homo sapiens;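 also: IC50 reflects inhibition of cancer cell line growth, read out with a cell viability assay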
Description: SANGER: Inhibition of human NCI-H810 cell growth in a cell viability assay.

[34] = system: SNU-16; test: cells; type: functional, cell-based; settings: Homo sapiens;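 also: growth inhibition of human SNU-16 cells, determined with a cell viability readout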
Description: SANGER: Inhibition of human NCI-SNU-16 cell growth in a cell viability assay.

[35] = system: OAW-28; test: cells; type: functional, cell-based; settings: Homo sapiens;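 also: growth inhibition of OAW-28 cells, read out with a cell viability assay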
Description: SANGER: Inhibition of human OAW-28 cell growth in a cell viability assay.

[36] = system: OVCAR-3; test: cells; type: functional, cell-based; settings: Homo sapiens;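 also: growth inhibition of human OVCAR-3 cells, determined by a cell viability assay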
Description: SANGER: Inhibition of human OVCAR-3 cell growth in a cell viability assay.

[37] = system: RO82-W-1; test: cells; type: functional, cell-based; settings: Homo sapiens;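 also: growth inhibition of human RO82-W-1 cells, measured with a cell viability assay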
Description: SANGER: Inhibition of human RO82-W-1 cell growth in a cell viability assay.

[38] = system: RPMI 8402; test: SANGER: Inhibition of human RPMI-8402 cell growth in a cell viability assay.; type: functional, cell-based
[39] = system: S-117; test: cells; type: functional, cell-based; settings: Homo sapiens
Description: SANGER: Inhibition of human S-117 cell growth in a cell viability assay.

[40] = system: SAS; test: cells; type: functional, cell-based; settings: Homo sapiens;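 also: growth inhibition of SAS cells, read out with a cell viability assay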
Description: SANGER: Inhibition of human SAS cell growth in a cell viability assay.

[41] = system: SCC-4; test: cells; type: functional, cell-based; settings: Homo sapiens;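 also: growth inhibition of human SCC-4 cells, read out as cell viability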
Description: SANGER: Inhibition of human SCC-4 cell growth in a cell viability assay.

[42] = system: SCLC-21H; test: cells; type: functional, cell-based; settings: Homo sapiens;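 also: growth inhibition of cultured human SCLC-21H cells, read out with a cell viability assay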
Description: SANGER: Inhibition of human SCLC-21H cell growth in a cell viability assay.

[43] = system: SK-HEP1; test: cells; type: functional, cell-based, SK-HEP-1; settings: Homo sapiens;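 also: cell viability readout used to quantify reduction in proliferation of human SK-HEP-1 cells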
Description: SANGER: Inhibition of human SK-HEP-1 cell growth in a cell viability assay.

[44] = system: SNU-423; test: cells; type: functional, cell-based; settings: Homo sapiens
Description: SANGER: Inhibition of human SNU-423 cell growth in a cell viability assay.

[45] = system: SW1417; test: cells; type: functional, cell-based; settings: Homo sapiens;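 also: growth inhibition of human SW1417 cells, read out with a cell viability assay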
Description: SANGER: Inhibition of human SW1417 cell growth in a cell viability assay.

[46] = system: SW48; test: cells; type: functional, cell-based; settings: Homo sapiens;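 also: growth inhibition of SW48 cells, read out with a cell viability assay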
Description: SANGER: Inhibition of human SW48 cell growth in a cell viability assay.

[47] = system: SW626; test: cells; type: functional, cell-based; settings: Homo sapiens;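 also: growth inhibition of SW626 cells, measured with a cell viability assay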
Description: SANGER: Inhibition of human SW626 cell growth in a cell viability assay.

[48] = system: TALL-1; test: cells; type: functional, cell-based; settings: Homo sapiens;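 also: growth inhibition of cultured human TALL-1 cells, read out by a cell viability assay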
Description: SANGER: Inhibition of human TALL-1 cell growth in a cell viability assay.

[49] = system: 647-V; test: cells; type: functional, cell-based; settings: Homo sapiens;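 also: growth inhibition of 647-V cells, read out with a cell viability assay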
Description: SANGER: Inhibition of human 647-V cell growth in a cell viability assay.

[50] = system: 786-0; test: cells; type: functional, cell-based; settings: Homo sapiens
Description: SANGER: Inhibition of human 786-0 cell growth in a cell viability assay.

[51] = system: 8505C; test: cells; type: functional, cell-based; settings: Homo sapiens
Description: SANGER: Inhibition of human 8505C cell growth in a cell viability assay.

[52] = system: A 172; test: cells; type: functional, cell-based; settings: Homo sapiens;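 also: growth inhibition of A172 cells, measured with a cell viability readout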
Description: SANGER: Inhibition of human A172 cell growth in a cell viability assay.

[53] = system: A-375; test: cells; type: functional, cell-based; settings: Homo sapiens;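 also: growth inhibition of A375 cells, read out with a cell viability assay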
Description: SANGER: Inhibition of human A375 cell growth in a cell viability assay.

[54] = system: ACHN; test: cells; type: functional, cell-based; settings: Homo sapiens;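 also: cell viability read-out used to gauge how strongly growth of human ACHN cells is suppressed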
Description: SANGER: Inhibition of human ACHN cell growth in a cell viability assay.

[55] = system: BC1 cell line; test: SANGER: Inhibition of human BC-1 cell growth in a cell viability assay.; type: functional, cell-based
[56] = system: BEN; test: cells; type: functional, cell-based; settings: Homo sapiens;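 also: growth inhibition of the BEN cell line, read out with a cell viability assay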
Description: SANGER: Inhibition of human BEN cell growth in a cell viability assay.

[57] = system: BPH-1; test: cells; type: functional, cell-based; settings: Homo sapiens;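 also: cell viability assay measuring growth inhibition of human BPH-1 cells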
Description: SANGER: Inhibition of human BPH-1 cell growth in a cell viability assay.

[58] = system: BT-20; test: cells; type: functional, cell-based; settings: Homo sapiens;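 also: cell viability assay measuring suppression of growth in human BT-20 cells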
Description: SANGER: Inhibition of human BT-20 cell growth in a cell viability assay.

[59] = system: CAL-39; test: cells; type: functional, cell-based; settings: Homo sapiens;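 also: cell viability assay measuring growth inhibition of CAL-39 cells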
Description: SANGER: Inhibition of human CAL-39 cell growth in a cell viability assay.

[60] = system: CAL-54; test: cells; type: functional, cell-based; settings: Homo sapiens;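 also: growth inhibition of CAL-54 cells, read out by a viability measurement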
Description: SANGER: Inhibition of human CAL-54 cell growth in a cell viability assay.

[61] = system: TGW; test: cells; type: functional, cell-based; settings: Homo sapiens
Description: SANGER: Inhibition of human TGW cell growth in a cell viability assay.

[62] = system: U-118-MG; test: cells; type: functional, cell-based; settings: Homo sapiens
Description: SANGER: Inhibition of human U-118-MG cell growth in a cell viability assay.

[63] = system: YAPC; test: cells; type: functional, cell-based; settings: Homo sapiens
Description: SANGER: Inhibition of human YAPC cell growth in a cell viability assay.

[64] = system: CMK; test: cells; type: functional, cell-based; settings: Homo sapiens
Description: SANGER: Inhibition of human CMK cell growth in a cell viability assay.

[65] = system: COLO-678; test: cells; type: functional, cell-based; settings: Homo sapiens
Description: SANGER: Inhibition of human COLO-678 cell growth in a cell viability assay.

For `C/C=C(/C)C(=O)O[C@H]1C(C)=C2[C@H]([C@@H]1OC(=O)CCCCCCC)[C@@](C)(OC(C)=O)C[C@H](OC(=O)CCC)[C@@]1(O)[C@H]2OC(=O)[C@@]1(C)O` [THAPSIGARGIN], the IC50 [1] was 22.8 nM, the IC50 [2] was > 512 nM and the IC50 [3] was 47.2 nM. The IC50 [4] was < 2 nM, the IC50 [5] was > 512 nM and the IC50 [6] was 7.58 nM. It also gave an IC50 [7] of 5.3 nM, an IC50 [8] of 2.4 nM and an IC50 [9] of 40.4 nM. The IC50 [10] was < 2 nM, the IC50 [11] was > 512 nM and the IC50 [12] was 61.9 nM. It also gave an IC50 [13] of 5.4 nM, an IC50 [14] of 43.2 nM and an IC50 [15] of 18.1 nM. For the same compound, the IC50 [16] was 27 nM, the IC50 [17] was < 2 nM and the IC50 [18] was < 2 nM. The IC50 [19] was > 512 nM, the IC50 [20] was 29.9 nM and the IC50 [21] was 4.08 nM. The IC50 [22] was 37.6 nM, the IC50 [23] was < 2 nM and the IC50 [24] was > 512 nM. The IC50 [25] was 4.73 nM, the IC50 [26] was 1.9 nM and the IC50 [27] was > 512 nM. The IC50 [28] was 199 nM, the IC50 [29] was 6.4 nM and the IC50 [30] was 8 nM. It also gave an IC50 [31] of 14.9 nM, an IC50 [32] of 8.37 nM and an IC50 [33] of 7.14 nM. The IC50 [34] was 189 nM, the IC50 [35] was 50.3 nM and the IC50 [36] was < 2 nM. For the same compound, the IC50 [37] was > 512 nM, the IC50 [38] was 5.23 nM and the IC50 [39] was 40.9 nM. It also gave an IC50 [40] of 106 nM, an IC50 [41] of 10.4 nM and an IC50 [42] of 1.69 nM. The IC50 [43] was 7.8 nM, the IC50 [44] was < 2 nM and the IC50 [45] was 335 nM. For the same compound, the IC50 [46] was 1.67 nM, the IC50 [47] was 17.7 nM and the IC50 [48] was 21.7 nM. The IC50 [49] was 13.7 nM, the IC50 [50] was < 2 nM and the IC50 [51] was < 2 nM. For the same compound, the IC50 [52] was < 2 nM, the IC50 [53] was < 2 nM and the IC50 [54] was 28.6 nM. It also gave an IC50 [55] of 23.2 nM, an IC50 [56] of 13.9 nM and an IC50 [57] of 0.6 nM. The IC50 [58] was > 512 nM, the IC50 [59] was < 2 nM and the IC50 [60] was > 512 nM. The IC50 [61] was 4.73 nM, the IC50 [62] was 31.9 nM and the IC50 [63] was 89.6 nM. The IC50 [64] was 33.3 nM and the IC50 [65] was > 512 nM.
For `CCn1c(-c2nonc2N)nc2cnc(Oc3cccc(NC(=O)c4ccc(OCCN5CCOCC5)cc4)c3)cc21` [GSK-269962A], the IC50 [2] was > 2500 nM, the IC50 [16] was > 2500 nM and the IC50 [20] was 1150 nM. The IC50 [21] was > 2500 nM, the IC50 [34] was > 2500 nM and the IC50 [38] was > 2500 nM. The IC50 [42] was > 2500 nM, the IC50 [48] was > 2500 nM and the IC50 [55] was > 2500 nM. The IC50 [61] was > 2500 nM and the IC50 [64] was 1010 nM.
With `O=c1[nH]c2ccccc2n1C1CCN(Cc2ccc(-c3nc4cc5[nH]cnc5cc4nc3-c3ccccc3)cc2)CC1` the IC50 [1] was > 2560 nM, the IC50 [2] was > 2560 nM and the IC50 [3] was > 2560 nM. The IC50 [4] was > 2560 nM, the IC50 [5] was > 2560 nM and the IC50 [6] was > 2560 nM. For the same compound, the IC50 [7] was > 2560 nM, the IC50 [8] was > 2560 nM and the IC50 [9] was > 2560 nM. For the same compound, the IC50 [10] was 150 nM, the IC50 [11] was > 2560 nM and the IC50 [12] was > 2560 nM. For the same compound, the IC50 [13] was 2430 nM, the IC50 [14] was > 2560 nM and the IC50 [15] was > 2560 nM. For the same compound, the IC50 [17] was > 2560 nM, the IC50 [18] was 2300 nM and the IC50 [19] was > 2560 nM. For the same compound, the IC50 [20] was > 2560 nM, the IC50 [21] was > 2560 nM and the IC50 [22] was 2060 nM. The IC50 [23] was > 2560 nM, the IC50 [24] was > 2560 nM and the IC50 [25] was 490 nM. For the same compound, the IC50 [26] was > 2560 nM, the IC50 [27] was > 2560 nM and the IC50 [28] was 542 nM. For the same compound, the IC50 [29] was > 2560 nM, the IC50 [30] was 2290 nM and the IC50 [31] was > 2560 nM. For the same compound, the IC50 [32] was > 2560 nM, the IC50 [33] was > 2560 nM and the IC50 [34] was > 2560 nM. For the same compound, the IC50 [35] was > 2560 nM, the IC50 [36] was 1840 nM and the IC50 [37] was > 2560 nM. The IC50 [38] was > 2560 nM, the IC50 [39] was > 2560 nM and the IC50 [40] was > 2560 nM. The IC50 [41] was > 2560 nM, the IC50 [42] was > 2560 nM and the IC50 [43] was > 2560 nM. The IC50 [44] was > 2560 nM, the IC50 [45] was > 2560 nM and the IC50 [46] was > 2560 nM. For the same compound, the IC50 [47] was > 2560 nM, the IC50 [48] was > 2560 nM and the IC50 [49] was > 2560 nM. The IC50 [50] was 1100 nM, the IC50 [51] was > 2560 nM and the IC50 [52] was > 2560 nM. The IC50 [53] was > 2560 nM, the IC50 [54] was > 2560 nM and the IC50 [55] was > 2560 nM. For the same compound, the IC50 [56] was > 2560 nM, the IC50 [57] was > 2560 nM and the IC50 [58] was > 2560 nM. The IC50 [59] was > 2560 nM, the IC50 [60] was > 2560 nM and the IC50 [61] was > 2560 nM. For the same compound, the IC50 [62] was > 2560 nM, the IC50 [63] was > 2560 nM and the IC50 [64] was > 2560 nM. The IC50 [65] was > 2560 nM.
